From patent US8071336B2, “Antibody-based therapeutics with enhanced ADCC activity” (Genzyme Corporation, priority 2005, dated 2011)

Legend:
[1] = system: Hybridoma cells expressing TEM mAb A; assay: N-glycans of TEM mAb A from inhibitor-treated hybridoma cells (MALDI-TOF MS); assay type: cell-based; conditions: 20 μg/ml mannostatin A, 0.5 mM NB-DNJ, or 2 μg/ml kifunensine at days 0 and 2
Procedure: Hybridoma cells expressing TEM mAb A, an antibody against a tumor vascular associated antigen, were grown in medium containing 1% fetal bovine serum with low IgG (Invitrogen Corp.), 5 μg/ml bovine insulin, 5 μg/ml human transferrin, 0.01 mM ethanolamine and 25 nM sodium selenite. Cells were treated once with the following inhibitors: 20 μg/ml mannostatin A, and 0.5 mM NB-DNJ for 4 days; and twice with 2 μg/ml kifunensine at days 0 and 2; or cultured without inhibitors (“control”).
N-linked glycans from antibodies purified as described in Example 1 were released with PNGase F. After filtration through 10 kDa filters, the filtrates were treated with Dowex AG-50 (H^+), AG501, and […] sequentially. Aliquots of samples were applied to a target, followed by sDHB matrix. The MALDI-TOF mass spectra were acquired using a Voyager-DE PRO Biospectrometry Workstation (Applied Biosystems, Foster City, Calif., USA) in the positive-ion and reflective mode.

[2] = system: CHO cells expressing TEM mAb B; assay: Batch cultures of CHO cells expressing TEM mAb B treated with kifunensine (shaker flasks); assay type: cell-based, Chinese hamster
Procedure: The production of TEM mAb B from batch cultures treated with various amounts of kifunensine or untreated was evaluated. CHO cells in shaker flasks were treated with 0, 0.5, 1, 1.5, or 2 μg/ml in a single or three additions (4 days apart) and cultured for 11 days. Cell viability (using trypan blue) and cell counts were assessed at least every other day.

[3] = system: CHO cell clone expressing TEM mAb A; assay: Titration of kifunensine concentration, N-glycans of TEM mAb A (MALDI-TOF MS); assay type: cell-based, Chinese hamster; conditions: for glycan structures of the expressed antibody: 11 days
Procedure: To investigate the impact of mixed oligomannose and complex-type glycans on antibody function, cells expressing TEM mAb A were treated with various amounts of kifunensine. In the first experiment, a CHO cell clone expressing TEM mAb A was treated with 0, 4, 20, 100, 500 and 2500 ng/ml of kifunensine for 11 days. The medium was harvested, and the antibody was purified using a protein A column. Fractions containing protein peaks were pooled and dialyzed into PBS. A second titration experiment was performed with a narrower range of kifunensine concentration, specifically, from 20 to 100 ng/ml. After treatment for 11 days, 50 ml of medium from each treatment condition was harvested, and the antibody was purified. Peak-containing fractions were pooled, buffer-exchanged into PBS using Centricon® filters with repeated centrifugation. Aliquots of TEM mAb A antibody samples were applied to a 4-12% NuPAGE and stained with Coomassie blue to confirm purity. The amount of fucosylated and non-fucosylated glycans in antibodies from each kifunensine treatment in the second titration experiment was estimated by calculating the area of each individual glycan peak in MALDI-TOF MS spectra.

[4] = after removal of most of the galactose residues; cited from earlier work
[5] = after removal of most of the galactose residues; cited from earlier work; remark: listed apart in the source

CCCCN1C[C@H](O)[C@@H](O)[C@H](O)[C@H]1CO [NB-DNJ, N-butyl-DNJ]
effect on glycosylation of the expressed antibody [1]: significant amounts of Glc1Man9GlcGNAc2 (Man9Glc)

O=C1N[C@@H]2[C@@H](O)[C@@H](O)[C@H](O)[C@@H](CO)N2C1=O [kifunensine]
Xvmax (viable cells at day of peak cell density) ([2]; 0.5 μg/ml kif sup. 3x (three additions), 11 days): 3.5 ×10^6 cells
Xvmax (viable cells at day of peak cell density) ([2]; 0.5 μg/ml kif, single addition, 11 days): 3.5 ×10^6 cells
Xvmax (viable cells at day of peak cell density) ([2]; 1 μg/ml kif sup. 3x (three additions), 11 days): 1.6 ×10^6 cells
Xvmax (viable cells at day of peak cell density) ([2]; 1 μg/ml kif, single addition, 11 days): 2.7 ×10^6 cells
Xvmax (viable cells at day of peak cell density) ([2]; 1.5 μg/ml kif sup. 3x (three additions), 11 days): 1.6 ×10^6 cells
Xvmax (viable cells at day of peak cell density) ([2]; 1.5 μg/ml kif, single addition, 11 days): 3.8 ×10^6 cells
Xvmax (viable cells at day of peak cell density) ([2]; 2 μg/ml kif sup. 3x (three additions), 11 days): 1.7 ×10^6 cells
Xvmax (viable cells at day of peak cell density) ([2]; 2 μg/ml kif, single addition, 11 days): 2.1 ×10^6 cells
cell viability (trypan blue) ([2]; FIG. 10A, 0 to 2 μg/ml kifunensine, 1 or 3 additions, 11 days): comparable
cell density ([2]; FIG. 10B, kifunensine-treated vs untreated cells): lower
glycan structures of the expressed antibody ([2]; single kifunensine treatment at 0.5 μg/ml): enough to result in the production of oligomannose-type structures
cell density ([2]; three additions of kifunensine vs untreated control or single treatment): much lower cell density
effect on glycosylation of the expressed antibody [1]: more effective in blocking the glycosylation to complex-type structures than NB-DNJ
glycan structures of the expressed antibody ([3]; 20 ng/ml kifunensine): only a small amount of oligomannose structures (Man5/Man6)
non-fucosylated glycans of the expressed antibody ([3]; 60 ng/ml or higher kifunensine, estimated from MALDI-TOF MS peak areas): > 80%
glycan structures of the expressed antibody ([3]; 100 ng/ml kifunensine): complete oligomannose structures

CS[C@@H]1[C@@H](N)[C@@H](O)[C@@H](O)[C@H]1O [mannostatin A]
effect on glycosylation of the expressed antibody [1]: No alteration in glycosylation

Campath®: a humanized mAb IgG1
complement lysis activity [4]: reduced complement lysis activity
ADCC [5]: no effect on ADCC
